Results: ChEMBL document CHEMBL1201862, “PubChem BioAssay data set” (2004)
The source made the active and inactive calls.

How the values were obtained:
[1] = cytotoxicity in HEK-293T cells, dose response, cytotoxicity control for BCR NF-kB inhibitor project, luminescence, B-cell screen hits (AID 489021); type: functional, cell-based;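 further: HEK-293T cells carrying an NF-kB luciferase reporter; cells exposed to compound for about 14 hours before viability readout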
[2] = control 3'UTR Renilla luciferase suppression, dose response, counter-screen for Shn3 inhibitor project, cell-based, Clone20-Shn3RL, cherry-picked (AID 624133); type: functional
[3] = Shn3 3'UTR reporter inhibitors, dose response, cell-based, Clone20 osteoblasts, firefly luciferase, cherry-picked (AID 624132); type: functional;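 further: firefly luciferase luminescence from reporter carrying the Shn3 3'UTR in osteoblasts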
Protein Wnt-3a = Protein Wnt-3a (Mus musculus, UniProt P27467); assay: Wnt3a-driven reporter signaling inhibition, dose response, selectivity assay for Gli-SUFU antagonist project, Wnt-LIGHT cells, luminescence (AID 651570); type: functional; conditions: read-out: IC50_Mean;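 further: Wnt-LIGHT reporter cells stimulated with conditioned medium from Wnt3a-producing cells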
Sequence of Protein Wnt-3a (P27467 whole entry): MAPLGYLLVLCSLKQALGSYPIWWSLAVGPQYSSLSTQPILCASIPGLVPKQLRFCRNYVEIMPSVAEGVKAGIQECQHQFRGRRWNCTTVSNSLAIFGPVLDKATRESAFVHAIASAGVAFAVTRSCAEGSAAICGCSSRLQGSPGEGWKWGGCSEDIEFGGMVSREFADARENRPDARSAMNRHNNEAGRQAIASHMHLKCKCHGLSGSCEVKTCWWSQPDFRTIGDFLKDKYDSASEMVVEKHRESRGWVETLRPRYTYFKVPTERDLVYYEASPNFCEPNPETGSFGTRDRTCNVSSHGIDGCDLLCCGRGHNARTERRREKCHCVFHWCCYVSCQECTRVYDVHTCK

[4] = HepG2 cell cytotoxicity, dose response, cytotoxicity control for Shn3 inhibitor project, CellTiter-Glo, cherry-picked (AID 624134); type: functional, cell-based
[5] = molecular target: T1, Heat shock factor protein 1 (Mus musculus, UniProt P38532); assay: HSF1 potentiators in luciferase reporter cells, confirmation, cell-based, NIH3T3, luminescence, dose retest (AID 435004); type: functional;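 further: stress induced by proteasome inhibitor MG132 added 30 min after compound; luciferase reporter driven by HSF1 response element in NIH3T3 cells; actives raise luminescence as potentiators of the MG132 stress response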
T1 sequence (P38532 whole entry): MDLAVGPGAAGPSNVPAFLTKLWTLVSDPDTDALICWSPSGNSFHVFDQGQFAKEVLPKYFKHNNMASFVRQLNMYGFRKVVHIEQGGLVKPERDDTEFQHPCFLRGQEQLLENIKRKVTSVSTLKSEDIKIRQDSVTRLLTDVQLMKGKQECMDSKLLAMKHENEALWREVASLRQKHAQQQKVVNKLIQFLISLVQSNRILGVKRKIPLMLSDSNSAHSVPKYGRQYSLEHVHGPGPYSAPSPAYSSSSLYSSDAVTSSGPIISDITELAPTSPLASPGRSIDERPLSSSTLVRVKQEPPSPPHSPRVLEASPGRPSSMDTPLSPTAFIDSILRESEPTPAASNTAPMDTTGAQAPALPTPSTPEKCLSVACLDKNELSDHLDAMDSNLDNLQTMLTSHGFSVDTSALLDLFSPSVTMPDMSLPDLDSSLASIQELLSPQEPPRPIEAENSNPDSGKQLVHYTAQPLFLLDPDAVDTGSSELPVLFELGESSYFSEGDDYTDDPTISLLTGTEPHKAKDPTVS

Aminopeptidase N = molecular target: T2, Aminopeptidase N (Plasmodium falciparum FcB1/Columbia, UniProt O96935); assay: P. falciparum M1AAP inhibitors, biochemical, fluorogenic H-Leu-NHMec substrate, 1536-well (AID 1445); design: species or system Plasmodium falciparum 3D7, 3D7
T2 sequence (O96935 whole entry): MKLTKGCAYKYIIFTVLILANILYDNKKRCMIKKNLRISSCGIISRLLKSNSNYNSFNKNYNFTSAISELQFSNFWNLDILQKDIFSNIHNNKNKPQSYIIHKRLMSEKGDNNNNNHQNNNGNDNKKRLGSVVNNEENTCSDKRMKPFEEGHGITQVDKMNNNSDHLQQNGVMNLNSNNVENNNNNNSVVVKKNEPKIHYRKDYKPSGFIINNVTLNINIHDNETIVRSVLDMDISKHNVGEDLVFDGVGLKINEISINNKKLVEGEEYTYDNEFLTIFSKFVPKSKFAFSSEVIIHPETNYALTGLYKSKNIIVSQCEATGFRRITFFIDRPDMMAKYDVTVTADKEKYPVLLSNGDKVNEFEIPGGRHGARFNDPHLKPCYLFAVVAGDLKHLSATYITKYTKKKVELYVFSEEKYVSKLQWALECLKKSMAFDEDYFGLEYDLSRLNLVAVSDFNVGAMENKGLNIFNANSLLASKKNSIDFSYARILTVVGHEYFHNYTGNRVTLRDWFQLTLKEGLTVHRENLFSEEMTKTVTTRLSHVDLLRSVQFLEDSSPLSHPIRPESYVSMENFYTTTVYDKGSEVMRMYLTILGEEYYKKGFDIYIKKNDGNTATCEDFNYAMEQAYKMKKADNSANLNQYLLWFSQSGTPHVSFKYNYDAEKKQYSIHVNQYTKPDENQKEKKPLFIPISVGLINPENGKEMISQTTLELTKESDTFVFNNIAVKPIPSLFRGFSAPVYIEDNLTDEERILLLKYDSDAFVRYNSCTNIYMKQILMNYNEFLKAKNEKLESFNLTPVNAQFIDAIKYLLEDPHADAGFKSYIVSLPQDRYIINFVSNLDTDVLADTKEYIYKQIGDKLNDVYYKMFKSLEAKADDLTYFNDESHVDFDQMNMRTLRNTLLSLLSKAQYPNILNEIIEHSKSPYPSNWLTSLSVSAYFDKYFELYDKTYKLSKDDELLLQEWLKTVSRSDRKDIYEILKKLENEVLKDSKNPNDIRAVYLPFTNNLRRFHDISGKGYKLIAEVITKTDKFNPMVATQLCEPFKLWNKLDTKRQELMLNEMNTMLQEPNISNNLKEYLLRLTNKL

Streptococcus = assay: Group A Streptococcus viability loss, dose response, counter-screen for streptokinase expression inhibitor project, luminescence, BacTiterGlo (AID 1915); type: functional, organism-based;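 further: potency for reduction of bacterial viability or growth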
[6] = system: Streptococcus sp. 'group A'; assay: growth inhibition of control SK(-) GAS strain, dose response, counter-screen for streptokinase expression inhibitor project, luminescence, kanamycin, BacTiterGlo, confirmation (AID 1900); type: functional, organism-based
[7] = molecular target: Eukaryotic translation initiation factor 4E (Mus musculus, UniProt P63073); assay: eIF4E–eIF4G protein interaction inhibitors, dose response, biochemical, TR-FRET (AID 855); type: functional;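 further: potency for disrupting eIF4E binding to eIF4GI seen as loss of FRET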
Sequence of Eukaryotic translation initiation factor 4E (P63073 whole entry): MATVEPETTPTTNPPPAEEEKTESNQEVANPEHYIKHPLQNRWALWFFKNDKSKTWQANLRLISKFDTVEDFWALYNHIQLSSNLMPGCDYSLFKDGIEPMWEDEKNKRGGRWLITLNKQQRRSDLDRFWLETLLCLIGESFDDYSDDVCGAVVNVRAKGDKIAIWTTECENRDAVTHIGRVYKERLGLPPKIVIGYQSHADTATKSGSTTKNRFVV

SUMO-activating enzyme [8] = molecular target: T3, SUMO-activating enzyme (Homo sapiens, UniProt Q9UBT2); assay: SUMOylation inhibitor hit validation, confirmation, SUMOylation inhibitor project, biochemical, AlphaScreen (AID 2018); type: functional
T3 sequence (Q9UBE0 whole entry): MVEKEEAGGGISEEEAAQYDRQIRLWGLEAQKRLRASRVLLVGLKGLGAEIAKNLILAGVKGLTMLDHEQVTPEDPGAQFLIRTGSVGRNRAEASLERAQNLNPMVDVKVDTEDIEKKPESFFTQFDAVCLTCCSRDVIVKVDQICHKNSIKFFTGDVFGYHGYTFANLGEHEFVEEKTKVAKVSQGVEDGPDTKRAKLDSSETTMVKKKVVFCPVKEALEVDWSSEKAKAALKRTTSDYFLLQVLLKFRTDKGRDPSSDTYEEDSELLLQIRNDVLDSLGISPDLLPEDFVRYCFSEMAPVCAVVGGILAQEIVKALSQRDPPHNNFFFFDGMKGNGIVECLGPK
T3 sequence (Q9UBT2 whole entry): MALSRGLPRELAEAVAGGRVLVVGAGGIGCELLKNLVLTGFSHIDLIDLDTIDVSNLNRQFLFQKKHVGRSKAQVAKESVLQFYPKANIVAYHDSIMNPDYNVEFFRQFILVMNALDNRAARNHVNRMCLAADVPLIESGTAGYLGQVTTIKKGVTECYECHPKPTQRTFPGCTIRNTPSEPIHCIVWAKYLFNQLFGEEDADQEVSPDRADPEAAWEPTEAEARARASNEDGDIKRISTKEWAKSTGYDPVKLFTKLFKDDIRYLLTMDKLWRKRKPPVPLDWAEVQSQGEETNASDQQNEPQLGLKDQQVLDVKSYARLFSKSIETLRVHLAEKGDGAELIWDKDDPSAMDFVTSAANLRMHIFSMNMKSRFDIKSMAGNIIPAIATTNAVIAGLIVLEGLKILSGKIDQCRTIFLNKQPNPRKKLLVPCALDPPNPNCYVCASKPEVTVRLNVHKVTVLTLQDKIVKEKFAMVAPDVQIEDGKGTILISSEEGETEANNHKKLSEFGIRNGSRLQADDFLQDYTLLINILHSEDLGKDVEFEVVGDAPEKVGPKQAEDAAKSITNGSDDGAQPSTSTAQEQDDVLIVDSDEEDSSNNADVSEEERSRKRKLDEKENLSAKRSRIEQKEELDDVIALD

SUMO-activating enzyme [9] = molecular target: T3, SUMO-activating enzyme; assay: inhibitors of in vitro SUMOylation cascade, primary screen, biochemical, HTRF, uHTS (AID 2006); type: protein-complex assay
[10] = molecular target: Induced myeloid leukemia cell differentiation protein Mcl-1 (Homo sapiens, UniProt Q07820); type: functional
Sequence of Induced myeloid leukemia cell differentiation protein Mcl-1 (Q07820 whole entry): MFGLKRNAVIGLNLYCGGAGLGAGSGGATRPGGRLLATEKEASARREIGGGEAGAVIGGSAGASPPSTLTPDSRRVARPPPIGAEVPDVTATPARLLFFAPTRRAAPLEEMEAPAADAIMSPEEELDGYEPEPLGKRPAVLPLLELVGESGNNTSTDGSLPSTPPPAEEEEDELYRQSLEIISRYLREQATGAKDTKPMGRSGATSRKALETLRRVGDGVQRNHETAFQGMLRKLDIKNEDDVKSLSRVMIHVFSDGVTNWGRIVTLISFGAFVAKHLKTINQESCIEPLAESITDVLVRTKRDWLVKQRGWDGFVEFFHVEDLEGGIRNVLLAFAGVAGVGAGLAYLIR

Genome polyprotein = Genome polyprotein (dengue virus type 2, UniProt P29990); assay: Dengue-2 NS5 methyltransferase inhibitors, primary screen, biochemical, confirmation dose response (AID 588689); type: functional
Sequence of Genome polyprotein (P29990 2492-3391 limits assumed): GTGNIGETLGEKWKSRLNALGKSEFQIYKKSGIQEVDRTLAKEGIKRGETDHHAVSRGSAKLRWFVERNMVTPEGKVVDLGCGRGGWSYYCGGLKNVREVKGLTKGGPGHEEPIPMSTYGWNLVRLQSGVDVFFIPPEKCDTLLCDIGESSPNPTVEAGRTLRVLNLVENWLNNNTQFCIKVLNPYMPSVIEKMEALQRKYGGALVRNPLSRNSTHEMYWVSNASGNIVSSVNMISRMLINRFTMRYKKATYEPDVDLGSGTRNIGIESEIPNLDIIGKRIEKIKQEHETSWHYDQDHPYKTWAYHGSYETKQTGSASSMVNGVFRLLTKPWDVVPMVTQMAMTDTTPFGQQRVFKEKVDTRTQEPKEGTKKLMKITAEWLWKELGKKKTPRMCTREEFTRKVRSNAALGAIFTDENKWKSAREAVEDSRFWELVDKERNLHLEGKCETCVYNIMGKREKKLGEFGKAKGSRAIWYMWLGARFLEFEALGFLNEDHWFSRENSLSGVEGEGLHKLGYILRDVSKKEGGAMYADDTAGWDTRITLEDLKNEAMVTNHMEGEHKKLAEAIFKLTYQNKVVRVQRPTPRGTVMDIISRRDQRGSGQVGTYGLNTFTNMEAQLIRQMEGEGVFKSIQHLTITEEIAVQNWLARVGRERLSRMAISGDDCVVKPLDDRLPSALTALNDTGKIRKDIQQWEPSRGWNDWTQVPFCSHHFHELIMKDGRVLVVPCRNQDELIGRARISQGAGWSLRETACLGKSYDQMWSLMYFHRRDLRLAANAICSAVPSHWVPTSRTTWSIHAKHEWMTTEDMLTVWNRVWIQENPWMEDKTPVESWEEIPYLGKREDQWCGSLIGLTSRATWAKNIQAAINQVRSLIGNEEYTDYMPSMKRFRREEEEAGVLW

[11] = molecular target: T4, Zinc finger protein mex-5 (Caenorhabditis elegans, UniProt Q9XUB2); assay: MEX-5/TCR-2 RNA interaction inhibitors, dose response, biochemical, C. elegans, fluorescence polarization (AID 1960)
T4 sequence (Q9XUB2 whole entry): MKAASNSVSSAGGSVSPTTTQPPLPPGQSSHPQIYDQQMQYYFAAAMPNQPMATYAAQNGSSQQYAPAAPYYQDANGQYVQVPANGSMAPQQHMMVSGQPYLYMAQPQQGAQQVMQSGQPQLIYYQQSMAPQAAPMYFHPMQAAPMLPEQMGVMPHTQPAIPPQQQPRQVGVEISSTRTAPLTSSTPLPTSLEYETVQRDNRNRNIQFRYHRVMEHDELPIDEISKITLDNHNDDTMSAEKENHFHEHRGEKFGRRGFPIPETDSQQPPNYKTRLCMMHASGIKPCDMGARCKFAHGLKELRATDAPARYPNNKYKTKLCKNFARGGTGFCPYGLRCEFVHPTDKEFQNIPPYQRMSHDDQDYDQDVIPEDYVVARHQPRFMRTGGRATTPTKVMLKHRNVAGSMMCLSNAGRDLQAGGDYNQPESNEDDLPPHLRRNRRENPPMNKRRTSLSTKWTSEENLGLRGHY

[12] = molecular target: T5, RNA-binding protein pos-1 (Caenorhabditis elegans, UniProt G5EF15); assay: inhibitors of POS-1/mex-3 RNA binding, dose response, biochemical, fluorescence polarization (AID 1964);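 further: purified POS-1 fused to maltose binding protein made in E. coli; potency of compounds blocking POS-1 binding to fluorescent RNA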
T5 sequence (G5EF15 whole entry): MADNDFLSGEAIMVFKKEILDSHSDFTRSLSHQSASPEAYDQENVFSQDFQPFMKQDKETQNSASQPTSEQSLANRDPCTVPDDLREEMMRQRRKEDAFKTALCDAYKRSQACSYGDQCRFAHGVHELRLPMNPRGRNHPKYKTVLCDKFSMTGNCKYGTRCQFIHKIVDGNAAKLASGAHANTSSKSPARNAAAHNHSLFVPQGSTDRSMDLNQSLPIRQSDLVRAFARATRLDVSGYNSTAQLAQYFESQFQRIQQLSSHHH

Cc1c(CCC(=O)N2CCC(C(=O)O)(c3ccccc3)CC2)c(=O)oc2cc3oc4c(c3cc12)CCCC4
IC50 [1]: > 80 µM (inactive)

CC1CN(S(=O)(=O)c2ccc(C(=O)Nc3nc(-c4cc5ccccc5o4)cs3)cc2)CC(C)O1 (centres undefined)
AC50 [2]: 2.04 µM (active) | IC50 [1]: > 80 µM (inactive) | AC50 [3]: < 0.26 µM (active) | IC50 (Protein Wnt-3a): 1.28 µM (active) | AC50 [4]: 1.02 µM (active)

Cc1ccc(O)c(NC(=O)COc2cc(C)ccc2C)c1
EC50 [5]: > 260 µM (inactive) | IC50 [1]: > 80 µM (inactive)

CCC(=O)N1NC(=C2C(=O)N(C)C(=O)N(C)C2=O)CC1c1ccccc1 (centres undefined)
IC50 (Aminopeptidase N): 41.9 µM (active) | EC50 (Streptococcus): 8.9 µM (active) | EC50 [6]: 4.93 µM (active)

Cc1ccc(CNC(=O)c2ccc(N3CCc4ccccc43)c([N+](=O)[O-])c2)cc1
IC50 [7]: > 64 µM (inactive)

CC1=C(C#N)C(=O)NC(=O)/C1=C\c1ccc(-c2cc(C)c(C)cc2[N+](=O)[O-])o1
IC50 (SUMO-activating enzyme [8]): 5.31 µM (active) | IC50 (SUMO-activating enzyme [9]): 39.7 µM (active) | IC50 [10]: 2.87 µM (active) | IC50 (Genome polyprotein): 64.9 µM (active) | EC50 [11]: > 300 µM (not active) | EC50 [12]: > 300 µM (not active) | IC50 [7]: 40.4 µM (inactive)
